According to ChEMBL document CHEMBL4145446, “Development of tacrine-bifendate conjugates with improved cholinesterase inhibitory and pro-cognitive efficacy and reduced hepatotoxicity” (Eur J Med Chem, 2018):
Activity calls are given as the source filed them. No cut-off for these calls is given here.

What was measured:
[1] = Cytotoxicity against rat PC12 cells assessed as inhibition of cell viability at 1 uM by MTT assay relative to control; format: cell-based, PC-12; settings: read-out: INH
Cholinesterase = Cholinesterase (Equus caballus, UniProt P81908); experiment: Inhibition of equine serum BuChE using butyrylthiocholine chloride as substrate preincubated for 15 mins followed by substrate addition measured every minute by Ellman's method
Cholinesterase, sequence (P81908 whole entry): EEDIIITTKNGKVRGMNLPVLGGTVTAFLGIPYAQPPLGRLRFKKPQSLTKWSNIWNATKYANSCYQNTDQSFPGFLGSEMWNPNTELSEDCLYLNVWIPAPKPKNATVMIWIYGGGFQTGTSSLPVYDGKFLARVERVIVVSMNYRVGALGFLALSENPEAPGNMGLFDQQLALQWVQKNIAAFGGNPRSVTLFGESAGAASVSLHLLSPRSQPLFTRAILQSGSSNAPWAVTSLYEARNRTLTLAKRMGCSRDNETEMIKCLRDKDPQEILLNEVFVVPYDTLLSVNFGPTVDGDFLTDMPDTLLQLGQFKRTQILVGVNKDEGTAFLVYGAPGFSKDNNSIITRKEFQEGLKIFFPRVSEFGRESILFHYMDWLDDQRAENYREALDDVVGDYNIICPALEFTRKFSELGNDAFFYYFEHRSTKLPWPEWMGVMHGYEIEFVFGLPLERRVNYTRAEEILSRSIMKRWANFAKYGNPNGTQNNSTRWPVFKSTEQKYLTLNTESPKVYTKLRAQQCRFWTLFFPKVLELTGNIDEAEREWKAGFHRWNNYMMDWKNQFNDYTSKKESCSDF

[2] = Cytotoxicity against rat PC12 cells assessed as inhibition of cell viability at 50 uM by MTT assay relative to control; format: cell-based, PC-12; settings: read-out: INH
[3] = Cytotoxicity against human HepG2 cells assessed as inhibition of cell viability at 1 uM by MTT assay relative to control; format: cell-based; settings: read-out: INH
[4] = Cytotoxicity against human HepG2 cells assessed as inhibition of cell viability at 50 uM by MTT assay relative to control; format: cell-based; settings: read-out: INH
[5] = Cytotoxicity against rat PC12 cells assessed as inhibition of cell viability at 10 uM by MTT assay relative to control; format: cell-based, PC-12; settings: read-out: INH
[6] = Cytotoxicity against human HepG2 cells assessed as inhibition of cell viability at 10 uM by MTT assay relative to control; format: cell-based; settings: read-out: INH
Acetylcholinesterase = Acetylcholinesterase (Electrophorus electricus, UniProt O42275); experiment: Inhibition of electric eel AChE using acetylthiocholine chloride as substrate preincubated for 15 mins followed by substrate addition measured every minute by Ellman's method
Acetylcholinesterase, sequence (O42275 whole entry): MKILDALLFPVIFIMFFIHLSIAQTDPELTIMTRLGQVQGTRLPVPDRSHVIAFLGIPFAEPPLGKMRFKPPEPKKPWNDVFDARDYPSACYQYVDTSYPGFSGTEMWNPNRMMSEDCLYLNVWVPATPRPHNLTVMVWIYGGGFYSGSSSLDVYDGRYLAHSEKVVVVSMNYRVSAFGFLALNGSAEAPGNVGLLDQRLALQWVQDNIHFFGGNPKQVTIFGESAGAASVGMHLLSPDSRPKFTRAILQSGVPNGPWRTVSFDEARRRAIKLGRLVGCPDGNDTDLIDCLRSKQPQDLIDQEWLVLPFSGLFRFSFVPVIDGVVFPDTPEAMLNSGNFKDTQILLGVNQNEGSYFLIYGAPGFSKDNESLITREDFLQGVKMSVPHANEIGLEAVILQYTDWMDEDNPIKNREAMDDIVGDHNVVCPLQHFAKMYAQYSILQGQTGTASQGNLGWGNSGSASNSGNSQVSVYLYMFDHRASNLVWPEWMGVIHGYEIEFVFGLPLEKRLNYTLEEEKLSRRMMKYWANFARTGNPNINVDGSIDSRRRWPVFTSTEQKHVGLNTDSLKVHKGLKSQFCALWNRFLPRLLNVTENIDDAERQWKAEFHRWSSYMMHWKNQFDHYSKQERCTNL

[7] = target: Amyloid-beta precursor protein (Homo sapiens) (UniProt P05067); experiment: Inhibition of human self-induced amyloid beta (1 to 42) aggregation at 20 uM after 48 hrs by uranyl acetate staining based TEM analysis
Amyloid-beta precursor protein (Homo sapiens), sequence (P05067 whole entry): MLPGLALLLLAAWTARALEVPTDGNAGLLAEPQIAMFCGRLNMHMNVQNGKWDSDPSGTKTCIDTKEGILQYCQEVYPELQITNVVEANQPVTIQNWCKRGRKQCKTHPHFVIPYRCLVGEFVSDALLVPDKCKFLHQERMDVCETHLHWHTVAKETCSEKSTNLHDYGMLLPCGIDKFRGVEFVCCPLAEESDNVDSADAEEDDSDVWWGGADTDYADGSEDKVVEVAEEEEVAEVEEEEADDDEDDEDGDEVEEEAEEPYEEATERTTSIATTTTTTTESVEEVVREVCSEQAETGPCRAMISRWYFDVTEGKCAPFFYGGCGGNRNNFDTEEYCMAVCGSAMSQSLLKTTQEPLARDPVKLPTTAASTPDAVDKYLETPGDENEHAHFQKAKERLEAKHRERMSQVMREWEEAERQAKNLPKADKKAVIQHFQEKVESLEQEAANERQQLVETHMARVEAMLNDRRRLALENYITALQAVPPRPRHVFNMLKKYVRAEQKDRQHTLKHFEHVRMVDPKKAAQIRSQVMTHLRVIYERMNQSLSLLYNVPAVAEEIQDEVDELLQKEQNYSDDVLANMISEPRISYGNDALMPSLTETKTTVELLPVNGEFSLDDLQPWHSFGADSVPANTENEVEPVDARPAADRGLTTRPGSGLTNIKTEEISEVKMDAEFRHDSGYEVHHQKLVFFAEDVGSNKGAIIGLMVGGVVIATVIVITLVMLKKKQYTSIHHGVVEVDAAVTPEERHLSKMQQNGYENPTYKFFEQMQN

Mus musculus [8] = experiment: Hepatotoxicity in Kunming mouse assessed as serum ALT level at 106 mg/kg, ig after 48 hrs by colorimetric method (reference value: 42.7 +/- 6.3 U/L); format: toxicity, organism-based; settings: in vivo, po
[9] = target: Cholinesterase (Equus caballus) (UniProt P81908); experiment: Inhibition of equine serum BuChE at 50 uM using butyrylthiocholine chloride as substrate preincubated for 15 mins followed by substrate addition measured every minute by Ellman's method
Cholinesterase (Equus caballus), sequence (P81908 whole entry): as the sequence (P81908 whole entry) above

Mus musculus [10] = experiment: Hepatotoxicity in Kunming mouse assessed as serum ALT level at 106 mg/kg, ig cotreated with THA after 48 hrs by colorimetric method (reference value: 42.7 +/- 6.3 U/L); format: toxicity, organism-based; settings: in vivo, po
Mus musculus [11] = experiment: Hepatotoxicity in Kunming mouse assessed as inflammatory cell infiltration in liver at 35 mg/kg, ig cotreated with THA after 48 hrs by H and E staining based assay; format: toxicity, organism-based; settings: in vivo, po
Mus musculus [12] = experiment: Hepatotoxicity in Kunming mouse assessed as serum ASAT level at 106 mg/kg, ig after 48 hrs by colorimetric method (reference value: 101.5 +/- 22.3 U/L); format: toxicity, organism-based; settings: in vivo, po
Mus musculus [13] = experiment: Hepatotoxicity in Kunming mouse assessed as histomorphological changes in liver at 106 mg/kg, ig after 48 hrs by H and E staining based assay; format: toxicity, organism-based; settings: in vivo, po
[14] = target: Acetylcholinesterase (Electrophorus electricus) (UniProt O42275); experiment: Inhibition of electric eel AChE at 50 uM using acetylthiocholine chloride as substrate preincubated for 15 mins followed by substrate addition measured every minute by Ellman's method
Acetylcholinesterase (Electrophorus electricus), sequence (O42275 24-633 limits assumed): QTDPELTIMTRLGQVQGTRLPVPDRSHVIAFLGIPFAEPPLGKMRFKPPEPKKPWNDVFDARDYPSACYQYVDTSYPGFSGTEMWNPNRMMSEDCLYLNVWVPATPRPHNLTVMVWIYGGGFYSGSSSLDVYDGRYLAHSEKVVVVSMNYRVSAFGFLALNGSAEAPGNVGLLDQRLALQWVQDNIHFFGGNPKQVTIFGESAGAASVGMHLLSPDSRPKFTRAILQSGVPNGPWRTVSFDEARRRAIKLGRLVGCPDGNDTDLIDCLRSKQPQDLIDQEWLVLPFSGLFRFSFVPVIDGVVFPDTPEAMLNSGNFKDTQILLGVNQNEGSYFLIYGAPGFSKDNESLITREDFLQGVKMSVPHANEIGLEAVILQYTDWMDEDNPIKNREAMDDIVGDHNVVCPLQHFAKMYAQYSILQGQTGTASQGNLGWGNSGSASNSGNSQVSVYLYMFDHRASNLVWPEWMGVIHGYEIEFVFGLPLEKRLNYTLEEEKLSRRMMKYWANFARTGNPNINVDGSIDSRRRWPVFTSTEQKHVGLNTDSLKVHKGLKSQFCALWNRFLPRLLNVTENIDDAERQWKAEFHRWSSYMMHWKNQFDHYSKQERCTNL

Mus musculus [15] = experiment: Hepatotoxicity in Kunming mouse assessed as serum ASAT level at 106 mg/kg, ig cotreated with THA after 48 hrs by colorimetric method (reference value: 101.5 +/- 22.3 U/L); format: toxicity, organism-based; settings: in vivo, po
Mus musculus [16] = experiment: Hepatotoxicity in Kunming mouse assessed as increase in serum ALT level at 106 mg/kg, ig after 48 hrs by colorimetric method relative to control; format: toxicity, organism-based; settings: in vivo, po
[17] = target: Acetylcholinesterase (Electrophorus electricus) (UniProt O42275); experiment: Mixed-type inhibition of electric eel AChE at 25 to 100 nM using acetylthiocholine chloride as substrate preincubated for 15 mins followed by substrate addition by Lineweaver-Burk plot analysis
Mus musculus [18] = experiment: Effect on spatial memory performance in ICR mouse model of scopalamine-induced memory impairment assessed as swimming speed at 20 umol equiv/kg, po pretreated for 30 mins followed by scopalamine treatment measured for 90 secs by Morris water maze test; format: ADME, organism-based; settings: 0.025 h
Mus musculus [19] = experiment: Cognition enhancing effect in ICR mouse model of scopalamine-induced memory impairment assessed as improvement in target quadrant preference at 20 umol equiv/kg, po pretreated for 30 mins followed by scopalamine treatment measured on day 15 by Morris water maze test; format: functional, organism-based
L02 [20] = experiment: Cytotoxicity against human HL7702 cells assessed as reduction in cell viability at 1 to 10 uM by MTT assay; format: cell-based; settings: l02, 10 µM
Mus musculus [21] = experiment: Effect on spatial memory performance in ICR mouse model of scopalamine-induced memory impairment assessed as total distance travelled at 20 umol equiv/kg, po pretreated for 30 mins followed by scopalamine treatment measured for 90 secs by Morris water maze test; format: ADME, organism-based; settings: 0.025 h
Mus musculus [22] = experiment: Hepatotoxicity in Kunming mouse assessed as increase in serum ASAT level at 106 mg/kg, ig after 48 hrs by colorimetric method relative to control; format: toxicity, organism-based; settings: in vivo, po
L02 [23] = experiment: Induction of apoptosis in human HL7702 cells at 10 uM in presence of PI3K inhibitor LY294002 by FITC staining based flow cytometry relative to control; format: cell-based; settings: l02, 10 µM

With COC(=O)c1cc(OC)c2c(c1-c1c(C(=O)NCCCCCCNc3c4c(nc5ccccc35)CCCC4)cc(OC)c3c1OCO3)OCO2 the cytotoxicity at 1 µM [1] was 5.26%, the IC50 (Cholinesterase) was 0.00402 µM and the cytotoxicity at 50 µM [2] was 27.3%. The cytotoxicity at 1 µM [3] was < 5%, the cytotoxicity at 50 µM [4] was 34.4% and the cytotoxicity at 10 µM [5] was < 5%. The cytotoxicity at 10 µM [6] was < 5% and the IC50 (Acetylcholinesterase) was 0.616 µM.
With COC(=O)c1cc(OC)c2c(c1-c1c(C(=O)NCCCCCCCCNc3c4c(nc5ccccc35)CCCC4)cc(OC)c3c1OCO3)OCO2 the cytotoxicity at 1 µM [1] was < 5%, the IC50 (Cholinesterase) was 0.0065 µM and the cytotoxicity at 50 µM [2] was 38.9%. For the same compound, the cytotoxicity at 1 µM [3] was 5.81%, the cytotoxicity at 50 µM [4] was 51.9% and the cytotoxicity at 10 µM [5] was < 5%. It also gave a cytotoxicity at 10 µM [6] of 9.53% and an IC50 (Acetylcholinesterase) of 0.945 µM.
With COc1cc(/C=C/C(=O)CC(=O)/C=C/c2ccc(O)c(OC)c2)ccc1O the inhibition [7] was “Active”.
With COC(=O)c1cc(OC)c2c(c1-c1c(C(=O)OC)cc(OC)c3c1OCO3)OCO2 [BIFENDATE] the Activity (Mus musculus [8]) was 39.3 U/L, the cytotoxicity at 1 µM [1] was < 5% and the inhibition [9] was “inactive”. For the same compound, the Activity (Mus musculus [10]) was 41.9 U/L, the IC50 (Cholinesterase) was > 50 µM and the cytotoxicity at 50 µM [2] was 7.21%. The cytotoxicity at 1 µM [3] was < 5%, the Activity (Mus musculus [11]) was “Non-Toxic” and the cytotoxicity at 50 µM [4] was 11.6%. For the same compound, the Activity (Mus musculus [12]) was 105 U/L, the cytotoxicity at 10 µM [5] was < 5% and the cytotoxicity at 10 µM [6] was 8.45%. For the same compound, the Activity (Mus musculus [13]) was “Non-Toxic”, the inhibition [14] was “inactive” and the Activity (Mus musculus [15]) was 110 U/L. The IC50 (Acetylcholinesterase) was > 50 µM.
For COC(=O)c1cc(OC)c2c(c1-c1c(C(=O)NCCCCCCCCCCNc3c4c(nc5ccccc35)CCCC4)cc(OC)c3c1OCO3)OCO2, the cytotoxicity at 1 µM [1] was < 5%, the “fold change (FC)” value (Mus musculus [16]) was 1.1 and the IC50 (Cholinesterase) was 0.00863 µM. For the same compound, the cytotoxicity at 50 µM [2] was 7.84%, the inhibition [17] was “Active” and the cytotoxicity at 1 µM [3] was 6.71%. The Activity (Mus musculus [18]) was “Non-Toxic”, the cytotoxicity at 50 µM [4] was 23.1% and the Activity (Mus musculus [19]) was “Active”. The cytotoxicity at 10 µM [5] was < 5%, the Activity (L02 [20]) was “Non-Toxic” and the cytotoxicity at 10 µM [6] was 10.8%. For the same compound, the Activity (Mus musculus [13]) was “Non-Toxic”, the inhibition [7] was “Active” and the Activity (Mus musculus [21]) was “Non-Toxic”. For the same compound, the “fold change (FC)” value (Mus musculus [22]) was 1.1, the IC50 (Acetylcholinesterase) was 0.0273 µM and the Activity (L02 [23]) was 14.1%.
In the case of COC(=O)c1cc(OC)c2c(c1-c1c(C(=O)NCCCCCCCCCCCCNc3c4c(nc5ccccc35)CCCC4)cc(OC)c3c1OCO3)OCO2, the cytotoxicity at 1 µM [1] is reported as < 5%, the IC50 (Cholinesterase) is reported as 0.0353 µM and the cytotoxicity at 50 µM [2] is reported as 7.76%. The cytotoxicity at 1 µM [3] was 7.35%, the cytotoxicity at 50 µM [4] was 46.1% and the cytotoxicity at 10 µM [5] was < 5%. It also gave a cytotoxicity at 10 µM [6] of 13.8% and an IC50 (Acetylcholinesterase) of 0.0521 µM.
With COC(=O)c1cc(OC)c2c(c1-c1c(C(=O)NCCCCNc3c4c(nc5ccccc35)CCCC4)cc(OC)c3c1OCO3)OCO2 the cytotoxicity at 1 µM [1] was < 5%, the IC50 (Cholinesterase) was 0.0755 µM and the cytotoxicity at 50 µM [2] was 19.3%. The cytotoxicity at 1 µM [3] was < 5%, the cytotoxicity at 50 µM [4] was 19.5% and the cytotoxicity at 10 µM [5] was < 5%. It also gave a cytotoxicity at 10 µM [6] of 11.9% and an IC50 (Acetylcholinesterase) of 0.923 µM.
